Laboratory results as given in article PMC5486114, “Interactions between a Heparin Trisaccharide Library and FGF-1 Analyzed by NMR Methods” (International Journal of Molecular Sciences, 2017).
Read-outs that look alike come from different tables or passages of the source.

Columns and labels:
Human recombinant FGF-1 [1] = molecular target: T1, Human recombinant FGF-1 (Homo sapiens, UniProt P05230); experiment: STD-NMR initial growth rates (STD0) of trisaccharides in presence of FGF-1; assay type: binding; conditions: for STD0 H1-C: anomeric proton of ring C, 600 MHz, 289 K, protein 19 µM, ligand 1.6 mM; for Relative STD0 H1-A / Relative STD0 H1-B / Relative STD0 H1-C: relative to largest anomeric STD0 of the compound (=100)
T1 construct: Human recombinant FGF-1 consisting of 141 residues; purchased Peprotech; host or cells: E. coli
T1 sequence (P05230 with tags, fused parts or gaps limits assumed): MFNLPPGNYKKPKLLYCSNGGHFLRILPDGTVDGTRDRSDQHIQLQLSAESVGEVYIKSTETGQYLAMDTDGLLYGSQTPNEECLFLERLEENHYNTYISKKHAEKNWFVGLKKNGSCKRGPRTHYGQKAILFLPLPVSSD
From the text: STD-NMR [30] studies were acquired for all the trisaccharides in the library in presence of FGF-1 using the same experimental conditions (see material and methods). Transference of saturation for all trisaccharides probed the interaction with the protein. Nevertheless, in contrast to the case of Langerin interaction, the results differed between the different compounds, indicating the existence of some differences in binding. Unfortunately, the spectral crowding only allowed us to accurately integrate the three anomeric signals along the saturation times, see Figure 3. Using a methodology previously described for disconnect the effect from proton relaxation on the STD values at a given time, the values of the initial rate of growth of STD (STD0) for the considered signals were obtained for the signals under consideration (Figure 4, Table 1). The distribution of magnetization along the trisaccharide chain is rather homogeneous, and is compatible with an extended interaction along the positive cleft of FGF-1, where the main binding site is located.
STD-NMR Experiments. All the samples were prepared in 250 μL 5 mM phostate buffer at pH 6.0 and 100 mM NaCl in 99.9% D2O. The concentration of the protein was 19 µM, and the ligand was 1.6 mM. The ratio between the protein and ligand was 1:84. The experiments were performed at 289 K. STD-NMR experiments were carried out with spin-lock to suppress protein signals. Moreover, we tried to suppress the solvent using excitation sculpting with gradients, and we used a shaped pulse train for saturation, alternating between on and off resonance. The on-resonance and off-resonance frequencies were set to 0.7 and 40 ppm, respectively. A spoil sequence was used to destroy unwanted magnetization. The saturation times were 0.5, 1, 2, 3 and 4 s, with an additional delay set to 3.6, 3.1, 2.1, 1.1 and 0.1, respectively, in order to keep the relaxation delay constant at […] for all experiments. STD NMR experiments were performed with 2048 scans with a total experimental time for every point of 5 h.
The STD initial rates (STD0) were calculated from the curve of STD vs. saturation time. To do so, we utilized the equation: STD0(t) = a [1 − exp (−bt)], where a represents the asymptotic maximum of the STD build-up curve (STDmax), b is a rate constant that depends on the relaxation properties of a given proton that measures the rate of the STD build-up (Ksat), and t is the saturation time (tsat). The STD0 values were obtained as the product of the ab coefficients.

Human recombinant FGF-1 [2] = molecular target: T1, Human recombinant FGF-1; experiment: IC50 by selective T1 (T1sel) NMR at different ligand concentrations; assay type: binding; conditions: T1sel method; 20 μM protein, ligand 80-640 μM
Description: (§1) IC50 values using STD-NMR were calculated for compound 1 at different concentrations based on the initial rates of the affinity factor method (Figure 5). […] In this case, due to the electrostatic nature of the complex, the gap between the protein and the ligand protons is very large, yielding low magnetization transfer values. On other hand, the small binding constant implies a large consumption of trisaccharide due to the high concentration needed to complete a meaningful titration curve. This, together with the large amount of time needed to record the full series of experiments, forced us to consider another method for the estimation of the IC50. Thus, we explored the IC50 calculation using selective T1 at different concentrations (Figure 6). Nevertheless, they are in agreement with the values obtained by Yu-Peng et al., when performing the same measure with disaccharides and FGF-2 by ITC [18].
Selective T1 NMR experiments. The samples were prepared using the same buffer at 20 μM protein concentration, while ligand concentration was 80, 160, 320, 480 and 640 μM. The ratios between protein and ligand were then 1:4, 1:8, 1:16, 1:24 and 1:32, respectively. We carry out studies on ^1H longitudinal relaxation rate (1/T1(sel). The relaxation times were measured by inversion recovery pulse sequence.
To determine the IC50, we adjusted the experimental values of the intensity signals vs. recovery delays to obtain an exponential function. We obtained the selective T1 value by f(t) = I0 × [1 − a × exp (−t/T1)]. In a ligand-receptor system where the ligand is present in large excess over the receptor binding sites, the ligand relaxation rate is describe by 1/T1obs = 1/T1free + fbound/(T1bound + tbound), where fbound is the fraction bound ([PL]/[L]) and τbound is the lifetime of the bound state. The relationship between total ligand concentration and T1 is then [P]0T1obs = ([L]0 + IC50)(T1bound + τbound), and a plot of [P]0 T1obs versus [L]0 gives a straight line with IC50 obtained from the intercept of the x axis.

Human recombinant FGF-1 [3] = molecular target: T1, Human recombinant FGF-1; experiment: STD-NMR initial growth rates (STD0) of trisaccharides in presence of FGF-1; assay type: binding; conditions: 600 MHz, 289 K, protein 19 µM, ligand 1.6 mM; for STD0 H1-A: anomeric proton of ring A; for STD0 H1-B: anomeric proton of ring B
Human recombinant FGF-1 [4] = molecular target: T1, Human recombinant FGF-1; experiment: IC50 by STD-NMR, initial rates of the STD affinity factor (STD0-AF); assay type: binding; conditions: 600 MHz, 298 K; authors do not support validity of the result; read-out: IC50 (STD-NMR, STD0-AF method)
Description: as §1
STD-NMR Experiments. […]
IC50 was obtained using the initial rates of the STD affinity factor approximation. The STD-AF initial slopes (STD-AF0) were calculated as before from the curve of STD-AF vs. saturation time at several ligand concentrations. From these initial slopes, the binding isotherm was built (STD-AF0 vs. ligand concentration), and the curve fitted to a Langmuir equation, from which the IC50 value was determined.

[5] = molecular target: WGA (Wheat Germen Agglutinin); experiment: T1sel validation assay: binding of GlcNAc to WGA; conditions: T1sel method; lectin 20 uM; preliminary assay
Description: page 7: Calculation of Binding Constants using T1sel. We have used the T1sel method for the evaluation of the KD binding. In order to assess the validity of the method we performed a preliminary assay using the known system of the binding of GlcNAc to WGA (Wheat […] Agglutinin) using a concentration of lectin of 20 uM. […] T1sel method is described in the experimental section of the main paper. (1 picture or pasted object on this page, not shown here)

[6] = molecular target: WGA (Wheat Germen Agglutinin); conditions: reported value, no reference given; cited from earlier work

Row | STD0 H1-C (Human recombinant FGF-1 [1]) | Relative STD0 H1-A (Human recombinant FGF-1 [1]) | Relative STD0 H1-B (Human recombinant FGF-1 [1]) | Relative STD0 H1-C (Human recombinant FGF-1 [1]) | IC50 (Human recombinant FGF-1 [2]) | STD0 H1-A (Human recombinant FGF-1 [3]) | STD0 H1-B (Human recombinant FGF-1 [3]) | IC50 (Human recombinant FGF-1 [4]) | Kd [5] | SMILES | Kd [6]
1 | 0.20 | 72 | 100 | 88 | 15.4 ± 0.4 µM | 0.17 | 0.23 | – | – | CC(C)O[C@H]1O[C@H](COS(=O)(=O)O)[C@@H](O[C@@H]2O[C@@H](C(=O)O)[C@@H](O[C@H]3O[C@H](CO)[C@@H](O)[C@H](O)[C@H]3NS(=O)(=O)O)[C@H](O)[C@H]2OS(=O)(=O)O)[C@H](O)[C@H]1NS(=O)(=O)O [Compound 3] | –
2 | 0.19 | – | 99 | 100 | 132 ± 1.8 µM | – | 0.18 | – | – | CC(=O)N[C@H]1[C@@H](OC(C)C)O[C@H](CO)[C@@H](O[C@@H]2O[C@@H](C(=O)O)[C@@H](O[C@H]3O[C@H](CO)[C@@H](O)[C@H](O)[C@H]3NS(=O)(=O)O)[C@H](O)[C@H]2OS(=O)(=O)O)[C@@H]1O [Compound 8] | –
3 | 0.11 | 100 | 48 | 64 | 46.7 ± 0.9 µM | 0.18 | 0.08 | – | – | CC(C)O[C@H]1O[C@H](CO)[C@@H](O[C@@H]2O[C@@H](C(=O)O)[C@@H](O[C@H]3O[C@H](CO)[C@@H](O)[C@H](O)[C@H]3NS(=O)(=O)O)[C@H](O)[C@H]2OS(=O)(=O)O)[C@H](O)[C@H]1NS(=O)(=O)O [Compound 7] | –
4 | 0.06 | 100 | 82 | 87 | 50.6 ± 0.1 µM | 0.07 | 0.06 | – | – | CC(C)O[C@H]1O[C@H](CO)[C@@H](O[C@@H]2O[C@@H](C(=O)O)[C@@H](O[C@H]3O[C@H](COS(=O)(=O)O)[C@@H](O)[C@H](O)[C@H]3NS(=O)(=O)O)[C@H](O)[C@H]2OS(=O)(=O)O)[C@H](O)[C@H]1NS(=O)(=O)O [Compound 5] | –
5 | 0.42 | 66 | 80 | 100 | 49.2 ± 0.3 µM | 0.28 | 0.34 | 1700 ± 10 µM | – | CC(C)O[C@H]1O[C@H](COS(=O)(=O)O)[C@@H](O[C@@H]2O[C@@H](C(=O)O)[C@@H](O[C@H]3O[C@H](COS(=O)(=O)O)[C@@H](O)[C@H](O)[C@H]3NS(=O)(=O)O)[C@H](O)[C@H]2OS(=O)(=O)O)[C@H](O)[C@H]1NS(=O)(=O)O [Compound 1] | –
6 | – | – | – | – | – | – | – | – | 2100 µM | CC(=O)N[C@H]1C(O)O[C@H](CO)[C@@H](O)[C@@H]1O (stereo partly shown) [GlcNAc] | 2500 µM
7 | 0.24 | 31 | 100 | 68 | 26.1 ± 0.7 µM | 0.11 | 0.36 | – | – | CC(=O)N[C@H]1[C@@H](OC(C)C)O[C@H](COS(=O)(=O)O)[C@@H](O[C@@H]2O[C@@H](C(=O)O)[C@@H](O[C@H]3O[C@H](COS(=O)(=O)O)[C@@H](O)[C@H](O)[C@H]3NS(=O)(=O)O)[C@H](O)[C@H]2OS(=O)(=O)O)[C@@H]1O [Compound 2] | –
8 | 0.12 | 62 | 100 | 94 | 181 ± 5.5 µM | 0.08 | 0.12 | – | – | CC(=O)N[C@H]1[C@@H](OC(C)C)O[C@H](CO)[C@@H](O[C@@H]2O[C@@H](C(=O)O)[C@@H](O[C@H]3O[C@H](COS(=O)(=O)O)[C@@H](O)[C@H](O)[C@H]3NS(=O)(=O)O)[C@H](O)[C@H]2OS(=O)(=O)O)[C@@H]1O [Compound 6] | –
9 | 0.24 | 67 | 100 | 94 | 84.7 ± 0.4 µM | 0.17 | 0.25 | 1700 µM | – | CC(=O)N[C@H]1[C@@H](OC(C)C)O[C@H](COS(=O)(=O)O)[C@@H](O[C@@H]2O[C@@H](C(=O)O)[C@@H](O[C@H]3O[C@H](CO)[C@@H](O)[C@H](O)[C@H]3NS(=O)(=O)O)[C@H](O)[C@H]2OS(=O)(=O)O)[C@@H]1O [Compound 4] | –
